Measurements taken from patent US10966426B2, “Herbicidal compositions comprising phenylpyrimidines” (BASF SE, priority 2016, dated 2021).
Several values for one entry are separate records, joined by “and”; a condition that tells them apart may be missing. Identical values can stand only once.

Columns and labels:
Format in all cases: in vivo
[1] = tested on: Polygonum aviculare; test: greenhouse post-emergence treatment, POLAV
In short: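 Scale 0–100 damage rating (100 = complete destruction of above-ground parts, 0 = normal growth), read 2 to 4 weeks after post-emergence application of aqueous spray liquor to plants 3–15 cm tall.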

[2] = tested on: Stellaria media; test: greenhouse pre-emergence treatment, STEME
In short: (§1)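 Pre-emergence spray of compounds, alone or as combinations formulated as 10% emulsion concentrate in water, directly after sowing in loamy sand (~3.0% humus); pots hooded until rooting, kept at 10-25° C or 20-35° C per species for 2 to 4 weeks. Damage scored 0-100 (100 = no emergence/complete destruction); Colby expected value E=X+Y−(X·Y/100).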

[3] = tested on: Lolium multiflorum; test: greenhouse pre-emergence treatment, LOLMU
In short: as §1

[4] = tested on: Poa annua; test: greenhouse pre-emergence treatment, POAAN; conditions: 20 DAT
In short: as §1

[5] = tested on: Brachiaria decumbens; test: greenhouse pre-emergence treatment, BRADC
In short: as §1

[6] = tested on: Apera spica-venti; test: greenhouse post-emergence treatment, APESV
In short: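 Post-emergence greenhouse spray on 3–15 cm plants, sown direct or transplanted a few days before treatment. Scored visually on a 0–100 scale after 2 to 4 weeks; expected additive effect computed by Colby: E=X+Y−(X·Y/100).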

[7] = tested on: Helianthus annuus; test: greenhouse pre-emergence treatment, HELAN; conditions: HELAN
In short: as §1

[8] = tested on: Matricaria chamomilla; test: greenhouse pre-emergence treatment, MATCH; conditions: 20 DAT
Text: The culture containers used were plastic pots containing loamy sand with approximately 3.0% of humus as substrate. The seeds of the test plants were sown separately for each species.
For the pre-emergence treatment, the active compounds, suspended or emulsified in water, were applied directly after sowing by means of finely distributing nozzles. The containers were irrigated gently to promote germination and growth and subsequently covered with transparent plastic hoods until the plants had rooted. This cover caused uniform germination of the test plants unless this was adversely affected by the active compounds.
Depending on the species, the plants were kept at 10-25° C. and 20-35° C., respectively.
The test period extended over 2 to 4 weeks. During this time, the plants were tended and their response to the individual treatments was evaluated.
Evaluation was carried out using a scale from 0 to 100. 100 means no emergence of the plants, or complete destruction of at least the above-ground parts, and 0 means no damage or normal course of growth. A good herbicidal activity is given at values of at least 70, and very good herbicidal activity is given at values of at least 85.
The respective stated components A and B, and if appropriate, C were formulated as a 10% by weight strength emulsion concentrate and, with addition of the amount of solvent system, introduced into the spray liquor used for applying the active compound. In the examples, the solvent used was water.
In the examples below, using the method of S. R. Colby (1967) “Calculating synergistic and antagonistic responses of herbicide combinations”, Weeds 15, p. 22ff., the value E, which is expected if the activity of the individual active compounds is only additive, was calculated. E=X+Y−(X·Y/100) where X=effect in percent using herbicide A at an application rate a; • Y=effect in percent using herbicide B at application rate b; • E=expected effect (in %) of herbicide A+herbicide B at application rates a+b.

[9] = tested on: Echinocloa crus-galli; test: greenhouse pre-emergence treatment, ECHCG
In short: as §1

[10] = tested on: Bromus sterilis; test: greenhouse pre-emergence treatment, BROST
In short: as §1

[11] = 20 DAT, Ex. 26 solo 62.5 gai/ha
[12] = 20 DAT, solo Ex. 26 62.5 gai/ha
[13] = Ex. 26 solo 31.25 gai/ha, 20 DAT
[14] = Ex. 26 solo 62.5 gai/ha, 20 DAT
[15] = Ex. 26 solo, 62.5 gai/ha, 20 DAT
[16] = Ex. 26 solo, 125 gai/ha, 20 DAT
[17] = 20 DAT, Ex. 26 solo 31.25 gai/ha

Compound: COC(=O)c1nc(C2CC2)ncc1-c1ccc(F)cc1Cl [Ex. 26]
- % activity [1, 11]: 75%
- % activity ([1]; 20 DAT, Ex. 26 solo 125 gai/ha): 85%
- % activity ([1]; Ex. 26 solo 62.5 gai/ha, 20 DAT, POLAV): 85%
- % activity ([1]; Ex. 26 solo 125 gai/ha, 20 DAT, POLAV): 90%
- % activity ([1]; Ex. 26 solo, 125 gai/ha, 20 DAT, POLAV): 85%
- % activity ([1]; POLAV, 21 DAT, solo Ex. 26 125 gai/ha): 90%
- % activity ([2]; 20 DAT, Ex. 26 solo 125 gai/ha): 20%
- % activity ([2]; 20 DAT, Ex. 26 solo 250 gai/ha): 90%
- % activity ([2]; 20 DAT, solo Ex. 26 15 gai/ha): 40%
- % activity [2, 12]: 30%
- % activity ([2]; 20 DAT, solo Ex. 26 125 gai/ha): 0%
- % activity [2, 13]: 0%
- % activity [2, 14]: 0%
- % activity ([2]; Ex. 26 solo 125 gai/ha, 21 DAT): 30%
- % activity ([2]; Ex. 26 solo 250 gai/ha, 21 DAT): 80%
- % activity [2, 15]: 0%
- % activity [2, 16]: 0%
- % activity [3, 17]: 10%
- % activity ([3]; 20 DAT, LOLMU, Ex. 26 solo 62.5 gai/ha): 10%
- % activity ([3]; Ex. 26 solo 62.5 gai/ha, 20 DAT, LOLMU): 30%
- % activity ([3]; Ex. 26 solo, 31.25 gai/ha, 20 DAT, LOLMU): 0%
- % activity ([3]; Ex. 26 solo, 62.5 gai/ha, 20 DAT, LOLMU): 0%
- % activity ([3]; Ex. 26 solo, 125 gai/ha, 20 DAT, LOLMU): 0%
- % activity ([3]; LOLMU, 20 DAT, solo Ex. 26 62.5 gai/ha): 0%
- % activity ([3]; LOLMU, 20 DAT, solo Ex. 26 62.5 gai/ha (Table X68)): 0%
- % activity ([3]; LOLMU, 20 DAT, solo Ex. 26 125 gai/ha): 0%
- % activity ([3]; LOLMU, Ex. 26 solo 31.25 gai/ha, 20 DAT): 0%
- % activity ([3]; LOLMU, Ex. 26 solo 62.5 gai/ha, 20 DAT): 0%
- % activity ([3]; LOLMU, Ex. 26 solo 125 gai/ha, 20 DAT): 30%
- % activity ([4]; solo Ex. 26 62.5 gai/ha): 70%
- % activity ([4]; solo Ex. 26 125 gai/ha): 65%
- % activity ([4]; Ex. 26 solo 62.5 gai/ha): 75% and 90%
- % activity ([4]; Ex. 26 solo, 31.25 gai/ha): 30%
- % activity ([4]; Ex. 26 solo, 125 gai/ha): 65%
- % activity ([5]; 20 DAT, BRADC, Ex. 26 solo 125 gai/ha): 50%
- % activity [5, 17]: 0%
- % activity [5, 11]: 0%
- % activity ([5]; 20 DAT, Ex. 26 solo 125 gai/ha): 20%
- % activity ([5]; 21 DAT, BRADC, Ex. 26 solo 125 gai/ha): 10%
- % activity ([5]; 21 DAT, BRADC, Ex. 26 solo 250 gai/ha): 30%
- % activity ([5]; BRADC, Ex. 26 solo 31.25 gai/ha, 20 DAT): 0%
- % activity ([5]; BRADC, Ex. 26 solo 62.5 gai/ha, 20 DAT): 0%
- % activity ([5]; BRADC, Ex. 26 solo 125 gai/ha, 20 DAT): 20% and 30%
- % activity ([5]; BRADC, Ex. 26 solo 250 gai/ha, 20 DAT): 65%
- % activity ([5]; Ex. 26 solo 62.5 gai/ha, 20 DAT, BRADC): 20%
- % activity ([5]; Ex. 26 solo 125 gai/ha, 20 DAT, BRADC): 0%
- % activity ([5]; Ex. 26 solo, 31.25 gai/ha, 20 DAT, BRADC): 0%
- % activity ([5]; Ex. 26 solo, 62.5 gai/ha, 20 DAT, BRADC): 0%
- % activity ([5]; Ex. 26 solo, 125 gai/ha, 20 DAT, BRADC): 0%
- % activity ([6]; 20 DAT, APESV, Ex. 26 solo 62.5 gai/ha): 70%
- % activity ([6]; 20 DAT, APESV, Ex. 26 solo 125 gai/ha): 75%
- % activity ([6]; 20 DAT, APESV, Ex. 26 solo 250 gai/ha): 80%
- % activity ([6]; 21 DAT, Ex. 26 solo 125 gai/ha): 65%
- % activity ([6]; 21 DAT, Ex. 26 solo 250 gai/ha): 75%
- % activity ([6]; APESV, Ex. 26 solo 125 gai/ha, 20 DAT): 75% and 70%
- % activity ([6]; APESV, Ex. 26 solo 250 gai/ha, 20 DAT): 75%
- % activity ([6]; Ex. 26 solo 62.5 gai/ha, 20 DAT, APESV): 60%
- % activity ([6]; Ex. 26 solo 125 gai/ha, 20 DAT, APESV): 70%
- % activity ([6]; Ex. 26 solo 250 gai/ha, 20 DAT, APESV): 75%
- % activity [7, 17]: 0%
- % activity [7, 11]: 20%
- % activity ([7]; 20 DAT, Ex. 26 solo 125 gai/ha): 0%
- % activity ([7]; 21 DAT, Ex. 26 solo 125 gai/ha): 0%
- % activity ([7]; 21 DAT, Ex. 26 solo 250 gai/ha): 0%
- % activity ([7]; Ex. 26 solo 125 gai/ha, 21 DAT): 0%
- % activity ([7]; Ex. 26 solo 250 gai/ha, 21 DAT): 0%
- % activity [7, 15]: 0%
- % activity [7, 16]: 0%
- % activity [7, 12]: 0%
- % activity [7, 13]: 0%
- % activity [7, 14]: 0%
- % activity ([7]; Ex. 26 solo 125 gai/ha, 20 DAT): 0%
- % activity ([8]; Ex. 26 solo 62.5 gai/ha): 0%
- % activity ([8]; Ex. 26 solo 125 gai/ha): 0%
- % activity [9, 17]: 50%
- % activity ([9]; 20 DAT, Ex. 26 solo 125 gai/ha): 90%
- % activity [9, 12]: 60%
- % activity [9, 13]: 50%
- % activity [9, 14]: 70%
- % activity ([9]; Ex. 26 solo 125 gai/ha, 20 DAT): 90%
- % activity ([9]; Ex. 26 solo, 31.25 gai/ha, 20 DAT): 50%
- % activity ([10]; 20 DAT, BROST, Ex. 26 solo 31.25 gai/ha): 10%
- % activity ([10]; 20 DAT, BROST, Ex. 26 solo 125 gai/ha): 35%
- % activity ([10]; 21 DAT, BROST, Ex. 26 solo 125 gai/ha): 60%
- % activity ([10]; BROST, 20 DAT, solo Ex. 26 125 gai/ha): 35%
- % activity ([10]; BROST, 20 DAT, solo Ex. 26 125 gai/ha (Table X68)): 30%
- % activity ([10]; BROST, Ex. 26 solo 62.5 gai/ha, 20 DAT): 20%
- % activity ([10]; BROST, Ex. 26 solo 125 gai/ha, 20 DAT): 30%
- % activity ([10]; Ex. 26 solo 125 gai/ha, 20 DAT, BROST): 35%
- % activity ([10]; Ex. 26 solo, 31.25 gai/ha, 20 DAT, BROST): 0%
- % activity ([10]; Ex. 26 solo, 62.5 gai/ha, 20 DAT, BROST): 20%
- % activity ([10]; Ex. 26 solo, 125 gai/ha, 20 DAT, BROST): 30%
